# Key:
# MCA205 tumor cells = assay: anti-tumor activity in syngeneic mice injected intravenously with MCA205 tumor cells (lung nodules); type: in vivo, C57Bl/6 mice; conditions: for number of lung nodules: oral, 30 mg/Kg/day, similar conditions, University of Barcelona, FIGS. 1b and 1c
# Procedure: (§1) (mean lung nodules of 9-10 mice/group±standard errors are shown; *: P<0.05 by Student T test).
# (§2) FIGS. 1b and 1c show the anti-tumoral activity of orally administered Compound A and Compound B in two syngeneic mouse models of cancer. (mean lung nodules of 9-10 mice/group±standard errors are shown; *: P<0.05 by Student T test).
# (§3) All experiments were carried out in accordance with guidelines set out by the Animal Experimental Ethics Committee. […] Vehicle consisted of 0.1% Tween 80 and 0.5% sodium carboxymethylcellulose (NaCMC) in water. Mice were euthanized at day 15, lungs harvested and tumor nodules counted under dissecting microscope. […] Freshly resected NSCLC tumors were obtained through the Tissue Core at Moffitt Cancer Center. The tumor was disaggregated for 2 hours in a Collagenase/DNase solution in the presence of complete protease inhibitors (Roche). Total cells (Tu) were counted. […] IL-2 has been used in some experiments in order to stimulate the IFN-γ production in these very resistant tumor cells. […] IFNg (IFN-γ ELISA R&D Systems) was determinated as a measure of T cell reactivity to autologous tumor cells. […] The compounds A and B were tested using similar experimental conditions, with the exception that the freshly resected NSCLC tumors were obtained from the Hospital Clínico in Barcelona. […] FIG. 8 a-g show the results obtained in each case. […] This is considered a clear signal of immune stimulation of the infiltrating lymphocytes presents in the tumors. […] 4. […] A compound of Formula I will be administered orally to the patient twice daily, fasting, at a dose of 80 mg, 160 mg, 320 mg or 640 mg throughout a cycle of 28 days. […] Response and progression will be evaluated in this study using the new international criteria proposed by the revised Response Evaluation Criteria in Solid Tumors (RECIST) guideline (version 1.1; Eisenhauer E A, Therasse P, Bogaerts J, et al. New response evaluation criteria in solid tumours: revised RECIST guideline (version 1.1). Eur J Cancer 2009; 45:228-47). […]
# B16-CD73+ tumor cells = assay: anti-tumor activity in syngeneic mice injected intravenously with B16-CD73+ tumor cells (lung nodules); type: in vivo, C57Bl/6 mice; conditions: for number of lung nodules: oral, 30 mg/Kg/day, similar conditions, University of Barcelona, FIGS. 1b and 1c
# Procedure: as §1, §2, §3
# [1] = test system: freshly resected NSCLC tumors (human lung tumour explants); assay: ex vivo human lung tumour explants: IFNg secretion (IFN-γ ELISA) as measure of T cell (TIL) reactivity; type: cell-based; conditions: for secretion of IFNg of tumor cells: NSCLC tumors from Hospital Clínico in Barcelona; for interferon gamma secretion from lung tumor cells stimulated with IL-2: FIG. 3
# Procedure: (§4) All experiments were carried out in accordance with guidelines set out by the Animal Experimental Ethics Committee. […] Vehicle consisted of 0.1% Tween 80 and 0.5% sodium carboxymethylcellulose (NaCMC) in water. Mice were euthanized at day 15, lungs harvested and tumor nodules counted under dissecting microscope. […] Freshly resected NSCLC tumors were obtained through the Tissue Core at Moffitt Cancer Center. The tumor was disaggregated for 2 hours in a Collagenase/DNase solution in the presence of complete protease inhibitors (Roche). Total cells (Tu) were counted. […] IL-2 has been used in some experiments in order to stimulate the IFN-γ production in these very resistant tumor cells. […] IFNg (IFN-γ ELISA R&D Systems) was determinated as a measure of T cell reactivity to autologous tumor cells. […] The compounds A and B were tested using similar experimental conditions, with the exception that the freshly resected NSCLC tumors were obtained from the Hospital Clínico in Barcelona. […] FIG. 8 a-g show the results obtained in each case. […] This is considered a clear signal of immune stimulation of the infiltrating lymphocytes presents in the tumors. […] 4. […] A compound of Formula I will be administered orally to the patient twice daily, fasting, at a dose of 80 mg, 160 mg, 320 mg or 640 mg throughout a cycle of 28 days. An anti-PD-1 antibody will be administered at a dose of about 300 mg or about 400 mg once every 3 week or once every 4 weeks. The anti-PD-1 antibody will be administered via IV infusion over a period of 30 minutes to 2 h. The compound of Formula I will be administered fasting immediately prior to the infusion with the anti-PD-1 antibody. In order to determine efficacy, baseline evaluations will be performed as closely as possible to the beginning of treatment and never more than 4 weeks before the beginning of the treatment. In addition to a baseline scan, confirmatory scans will be obtained 4-6 weeks following initial documentation of objective response. Response and progression will be evaluated in this study using the new international criteria proposed by the revised Response Evaluation Criteria in Solid Tumors (RECIST) guideline (version 1.1; Eisenhauer E A, Therasse P, Bogaerts J, et al. New response evaluation criteria in solid tumours: revised RECIST guideline (version 1.1). Eur J Cancer 2009; 45:228-47). Changes in the largest diameter (unidimensional measurement) of the tumor lesions and the shortest diameter in the case of malignant lymph nodes are used (Schwartz L H, Bogaerts J, Ford R, et al. Evaluation of lymph nodes with RECIST 1.1. Eur J Cancer 2009; 45:261-7). All The same method of assessment and the same technique will be used to characterize each identified and reported lesion at baseline and during follow-up. Imaging-based evaluation such as Chest x-ray, conventional CT and MRI will be used.
# [2] = test system: resistant human lung tumor explants; assay: Bioplex assay of interleukins secretion in supernatants of resistant human lung tumor explants; type: cell-based
# Procedure: as §4
# [3] = toxicity profile in different animal models; type: in vivo; conditions: in comparison with classical chemotherapy and other adenosine receptor antagonists
# [4] = compound alone, 1 μM, FIGS. 4-7 (IL-2 stimulated)
# [5] = in combination with an anti-PD-L1 or an anti-PD-1 antibody, FIGS. 4-7
# [6] = compound alone, supernatants from ex vivo experiments, FIG. 8
compound,measurement,setting,value
"Nc1nc(-n2cccn2)nc(-n2cccn2)c1Cl [Compound A, 5-chloro-2,6-di-(1H-pyrazol-1-yl)pyrimidin-4-amine, reference compound]",number of lung nodules,MCA205 tumor cells,no significant reduction
same,number of lung nodules,B16-CD73+ tumor cells,no significant reduction
same,secretion of IFNg of tumor cells,[1]; [4],not able to increase the secretion of IFNg
same,secretion of IFNg of tumor cells,[1]; [5],not able to increase the secretion of IFNg
"Nc1nc(-n2cccn2)nc(-n2cccn2)c1Br [Compound of formula (I), 5-bromo-2,6-di-(1H-pyrazol-1-yl)pyrimidin-4-amine]",tumor burden (lung nodule and lung metastasis),"MCA205 tumor cells; 2×10^5 MCA205 cells i.v., 30 mg/kg/day oral gavage daily for 7 days vs vehicle, nodules counted day 15, FIG. 1a",significantly reduced tumor burden
same,tumor burden (lung nodule and lung metastasis),"B16-CD73+ tumor cells; 3×10^5 B16-CD73+ cells i.v., 15 mg/kg/day oral gavage daily for 15 days vs vehicle, nodules counted day 15, FIG. 1a",significantly reduced tumor burden
same,secretion of IL5 (Interleukin 5) to the medium,[2]; [6],significantly increase the secretion
same,secretion of IL10 (Interleukin 10) to the medium,[2]; [6],significantly increase the secretion
same,secretion of IL13 (Interleukin 13) to the medium,[2]; [6],significantly increase the secretion
same,secretion of IL17 (Interleukin 17) to the medium,[2]; [6],significantly increase the secretion
same,secretion of ILib (Interleukin 1b) to the medium,[2]; [6],significantly increase the secretion
same,secretion of MIP1b to the medium,[2]; [6],significantly increase the secretion
same,secretion of tumor necrosis factor α (TNFα) to the medium,[2]; [6],significantly increase the secretion
same,secretion of different interleukins,[2]; in combination with either an anti PDL-1 or an anti-PD-1 antibody,increased the secretion of different interleukins of these tumors synergistically
same,TIL function (IFNg concentration),"[1]; 1 μM in combination with anti-PD-L1 antibody, other tumors",synergistically capable of restoring TIL function
same,TIL function (IFNg concentration),"[1]; 1 μM in combination with anti-PD-L1 antibody, some of the samples",improved TIL function (as determined by measuring IFNg concentration) in additive way
same,interferon gamma secretion from lung tumor cells stimulated with IL-2,[1]; compound alone,significantly increased
same,interferon gamma secretion from lung tumor cells stimulated with IL-2,"[1]; in combination with anti-PD-1 antibody, compared with compound alone",more pronounced
same,interferon gamma secretion of non-stimulated lung tumor cells,"[1]; in combination with anti-PD-L1 antibody, FIG. 2",significantly increase
same,TIL function (IFNg concentration),"[1]; single agent, other tumors, compound 1 μM, antibody 10 mg/ml",had no effect on TIL function
same,TIL reactivity (IFNg concentration),"[1]; single agent, some of the samples, 200,000 cells/well, 3 days, compound 1 μM, antibody 10 mg/ml",partially restored TIL reactivity
same,toxicity profile,[3],low toxicity profile
"N#Cc1c(N)nc(-n2cccn2)nc1-n1cccn1 [Compound B, 4-amino-2,6-di-(1H-pyrazol-1-yl)pyrimidine-5-carbonitrile, reference compound]",number of lung nodules,MCA205 tumor cells,no significant reduction
same,number of lung nodules,B16-CD73+ tumor cells,no significant reduction
same,secretion of IFNg of tumor cells,[1]; [4],not able to increase the secretion of IFNg
same,secretion of IFNg of tumor cells,[1]; [5],not able to increase the secretion of IFNg

# — patent US10561653B2 (NOVARTIS AG, priority 2015, dated 2020)
